Data on seven molecules can be found in patent publication US20030139371A1, “Drug for combating sexual dysfunctions” (priority 2000, published 2003).

Experiment [1] relates to isolated rabbit corpus cavernosum. As to the kind of experiment: Isolated rabbit corpus cavernosum in organ chambers, sex not specified or both sexes. As to conditions: for potentiation of the relaxant effect of purine by the NSAID: NSAID in place of aspirin, combined with purine. The source says:
The in vitro model we used was that of the isolated rabbit corpus cavernosum in organ chambers. […] In fact, the best correlations with the results found in humans have been found in the rabbit; see, e.g., Bush P. A., Aronson W. J., Buga G. M., Rajfer J., Ignarro L. J., J. Urol. 147(6); 1650-1655 (1992); Knispel H. H., Goessel C., Bechman R., Urol. Res. 20(4); 253-257 (1992); Holmquist F., Hedlund H., Andersson K. E., J. Physiol. (London) 449; 295-311 (1992); and Cellek S., Moncada S., Proc. Natl. Acad. Sci. USA 94(15); 8226-8231 (1997).
The relaxant action of purines was studied in this model either with purines alone or with an inhibitor of NO synthesis (N-omega-nitro-L-arginine, or L-NNA) so as to investigate whether the regulation by purines of the production of NO is a component of the relaxant effect of purines.
In a similar manner, we investigated whether the presence of an inhibitor of the synthesis of prostaglandins (cyclooxygenase inhibitor) modified the effects of purine. If the action of purine could be explained in part by an indirect effect via prostaglandins, we would expect to see a decrease in the effect of purine in the presence of the cyclooxygenase inhibitor.
This study was performed in vitro on corpus cavernosum smooth muscles from male and female rabbits. The technique is that of organ chambers.
The study was performed on male and female rabbits.

Experiment [2] has as its system corpus cavernosum smooth muscle from male rabbits. As to the kind of experiment: Relaxation of phenylephrine-precontracted corpus cavernosum smooth muscle in organ chambers, male rabbits. Also on record: species or system rabbit. Particulars: for relaxation of the corpus cavernosum smooth muscle in the presence of aspirin / relaxation of the corpus cavernosum smooth muscle: male rabbits, after phenylephrine precontraction; for relaxation of the corpus cavernosum smooth muscle in the presence of aspirin: purine 10^-3M combined with aspirin 10^-3M; for relaxation of the corpus cavernosum smooth muscle: purine alone at 10^-3M.

Experiment [3] deals with corpus cavernosum smooth muscle from female rabbits. Nature of the experiment: Relaxation of phenylephrine-precontracted corpus cavernosum smooth muscle in organ chambers, female rabbits. Also on record: species or system rabbit. As to conditions: after phenylephrine precontraction; for relaxation of the corpus cavernosum in the presence of aspirin: purine 10^-3M in the presence of aspirin; for relaxation of the corpus cavernosum: purine alone at 10^-3M.

With `Cc1cccc(Nc2ccccc2C(=O)O)c1C` [mefenamic acid], in experiment [1], the “potentiation of the relaxant effect of purine by the NSAID” value is “confirmed”. On the same count and under the same terms, the same measure for `O=C(O)c1ccccc1O` [salicylic acid]: “confirmed”. As for `CC(=O)Oc1ccccc1C(=O)O` [aspirin, acetylsalicylic acid, reference compound], the “vasoactivity of the NSAID by itself on this model” value in experiment [2] (aspirin alone) is “not vasoactive”.

In the case of `NC(=NCCC[C@H](N)C(=O)O)N[N+](=O)[O-]` [L-NNA, N-omega-nitro-L-arginine], the “decrease of the relaxant effect of purine in the presence of an inhibitor of NO synthesis” value in experiment [1] (compared with purine alone) is “about 15%”. For the molecule `Nc1ncnc2c1ncn2[C@@H]1O[C@H](COP(=O)(O)OP(=O)(O)OP(=O)(O)O)[C@@H](O)[C@H]1O` [ATP, adenosine triphosphate], in experiment [3], the “relaxation of the corpus cavernosum in the presence of aspirin” value is recorded as 50% and the “relaxation of the corpus cavernosum” value came to 31%. In experiment [2], the “relaxation of the corpus cavernosum smooth muscle in the presence of aspirin” value turned out to be 57% and the “relaxation of the corpus cavernosum smooth muscle” value turned out to be 35%. On to `COc1ccc2c(c1)c(CC(=O)O)c(C)n2C(=O)c1ccc(Cl)cc1` [indomethacin], for which, in experiment [1], the “potentiation of the relaxant effect of purine by the NSAID” value was “confirmed”. As to `Nc1ncnc2c1ncn2[C@@H]1O[C@H](COP(=O)(O)O)[C@@H](O)[C@H]1O` [AMP], in experiment [3], the “relaxation of the corpus cavernosum in the presence of aspirin” value is 36% and the “relaxation of the corpus cavernosum” value is recorded as 20%. For the same molecule, in experiment [2], the “relaxation of the corpus cavernosum smooth muscle in the presence of aspirin” value amounted to 92% and the “relaxation of the corpus cavernosum smooth muscle” value is on record as 70%.
